Results reported in patent publication US20240150339A1, “Compounds and Their Use as PDE4 Activators” (Mironid Limited, priority 2021, published 2024).

Key:
PDE4D5 = biological target: T1, PDE4D5 (Homo sapiens, UniProt Q08499); test: PDE assay, activation of full-length human PDE4D5 long form ([3H]cAMP radio-assay); assay type: biochemical; settings: 30 μM test compound; mean % increase in counts over basal activity
T1 construct: Using Full-Length Human PDE4 Isoforms: Long Forms PDE4D5, PDE4C3, PDE4B1 and Short Form PDE4B2; made in house; cytosol fraction of the cell lysate, not purified
Description: (§1) Experiment 1: Measurement of Modulation of Enzyme Activity by PDE4 Long Form Activators of the Present Invention Using Full-Length Human PDE4 Isoforms: Long Forms PDE4D5, PDE4C3, PDE4B1 and Short Form PDE4B2
(§2) (Marchmont, R. J. and Houslay, M. D. Biochem. J. 187: 381-92, 1980)
(§3) For transient transfection of exogenous PDE4 long isoforms, HEK 293 cells were transfected with pcDNA3.1 or pDEST™ PDE4 expression vectors using Lipofectamine LTX/Plus reagent (Invitrogen) as outlined by the manufacturer.
(§4) Where stable cell lines were generated the clonal isolates were expanded to obtain cell lines that stably expressed the full-length human PDE4 long isoforms and the full length human PDE4B2 short isoform. These were called the HEK-PDE4D5, HEK-PDE4B1 and HEK-PDE4B2 cell lines, respectively.
(§5) HEK-PDE4D5 cells were seeded out in 100 mm plates and incubated at 37° C. in an atmosphere of 5% CO2, 95% air. Cell lysates were prepared using KHEM buffer [50 mM KCl, 10 mM EGTA, 50 mM HEPES (pH 7.2), 1.92 mM MgCl2].
(§6) To prepare the cell lysates, the 100 mm plates containing the cells were placed on ice and washed with ice-cold PBS (phosphate buffered saline, pH 7.4). KHEM buffer (500 μl) was added to the cells. Cells were then scraped off the plate and triturated using a needle (BD Microlance™ 0.8, 40 mm). The lysed cells were then centrifuged at 2000 rpm for 10 minutes to remove cell debris and the supernatant (cell lysate containing recombinant PDE4D5) was transferred to a fresh tube and kept on ice.
(§7) The cell lysate containing recombinant PDE4D5 was transferred into a centrifuge tube and placed into an ultracentrifuge (BECKMAN COULTER) and spun at high speed (100,000 g) for 30 minutes at 4° C. The cytosol fraction was then collected and its protein amount determined using a BCA protein assay.
(§8) PDE assays were performed in thin walled V-bottomed 96-well plates. The assays were performed at a final concentration of 10 mM Tris/5 mM MgCl2 μlus PDE4D5 cell lysate cytosol fraction, containing over-expressed PDE4D5, with and without test compound. The lysate/compound mix were incubated together for 15 min at room temperature on an orbital shaker prior to addition of [^3H] cAMP (final concentration 1 μM [^3H] cAMP; Perkin Elmer) to a final volume of 50 μl per reaction. The reactions were then incubated for 10 minutes at 30° C., terminated by heating for 2 min at 95° C. and allowed to cool. Snake venom (12.5 μl of 1 mg/ml; Crotalus atrox, Sigma) was then added and the plates were agitated and incubated for a further 15 minutes at 30° C. Dowex ion exchange resin (Sigma, chloride form, 200-400 mesh; 200 μl; prepared as a 1:1 Dowex: water stock, thoroughly re-suspended and diluted 2:1 with ethanol) was then added to each well and the plates incubated for 15 min at room temperature on an orbital shaker ensuring sufficient agitation for resin suspension (550 RPM). The reaction mixture was then transferred to a 96 well filter plate (Millipore; […] pore size) and filtered into a receiving 96-well plate to remove the dowex suspension. 30 μL of the filtered solution was then transferred to the wells of an Opti-plate (Perkin Elmer) 96 well assay plate and 120 μl of Microscint 40 scintillation fluid was added. The plate was then placed on an orbital shaker for 10 min at high speed (900 RPM) to mix the sample with scintillation fluid prior to quantitation using a plate based scintillation counter (Top-Count).
(§9) The % increase in counts in the presence of test compound at a particular concentration indicates the % increase in enzyme activity at that concentration.

m-IMCD3 cells = test: Inhibition of PGE2-stimulated in vitro cyst formation in 3D culture of m-IMCD3 cells; assay type: cell-based, mouse; settings: Mus musculus, mIMCD3, 144 h; 10 μM test compound; mean cyst area (%) compared to 100% for (DMSO + PGE2) and 0% for DMSO control; 100 nM PGE2; 6 days; read-out: % Cyst area after incubation with 10 μM test compound
How it was run: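 Mouse m-IMCD3 cells grown in 3D collagen I/Matrigel gels. From 18-24 h after plating, compound (0.1% DMSO) plus 100 nM PGE2 were added and replenished at 2-3 days. After 6 days, imaging gave mean cyst area, scaled to 100% for DMSO+PGE2 and 0% for DMSO alone.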

PDE4C3 = biological target: T2, PDE4C3 (Homo sapiens, UniProt Q08493); test: PDE assay, activation of full-length human PDE4C3 long form ([3H]cAMP radio-assay); assay type: biochemical; settings: 30 μM test compound; mean % increase in counts over basal activity
T2 construct: Using Full-Length Human PDE4 Isoforms: Long Forms PDE4D5, PDE4C3, PDE4B1 and Short Form PDE4B2; made in house; host or cells: HEK 293 transfected with pcDNA3.1 or pDEST PDE4 expression vector; cytosol fraction of the lysate by analogy to PDE4D5
Description: as §1, §2
For transient transfection of exogenous PDE4 long isoforms, HEK 293 cells were transfected with pcDNA3.1 or pDEST™ PDE4 expression vectors using Lipofectamine LTX/Plus reagent (Invitrogen) as outlined by the manufacturer. […]
as §5, §6, §7, §8, §9

PDE4B2 = biological target: T3, PDE4B2 (Homo sapiens, UniProt Q07343); test: PDE assay, activity of full-length human PDE4B2 short form ([3H]cAMP radio-assay); assay type: biochemical; settings: 30 μM test compound; mean % increase in counts over basal activity
T3 construct: the full length human PDE4B2 short isoform; made in house; cytosol fraction of the lysate by analogy to PDE4D5
Description: as §1, §2, §3, §4, §5, §6, §7, §8, §9

T1 sequence (Q08499 1-745 isoform Q08499-6): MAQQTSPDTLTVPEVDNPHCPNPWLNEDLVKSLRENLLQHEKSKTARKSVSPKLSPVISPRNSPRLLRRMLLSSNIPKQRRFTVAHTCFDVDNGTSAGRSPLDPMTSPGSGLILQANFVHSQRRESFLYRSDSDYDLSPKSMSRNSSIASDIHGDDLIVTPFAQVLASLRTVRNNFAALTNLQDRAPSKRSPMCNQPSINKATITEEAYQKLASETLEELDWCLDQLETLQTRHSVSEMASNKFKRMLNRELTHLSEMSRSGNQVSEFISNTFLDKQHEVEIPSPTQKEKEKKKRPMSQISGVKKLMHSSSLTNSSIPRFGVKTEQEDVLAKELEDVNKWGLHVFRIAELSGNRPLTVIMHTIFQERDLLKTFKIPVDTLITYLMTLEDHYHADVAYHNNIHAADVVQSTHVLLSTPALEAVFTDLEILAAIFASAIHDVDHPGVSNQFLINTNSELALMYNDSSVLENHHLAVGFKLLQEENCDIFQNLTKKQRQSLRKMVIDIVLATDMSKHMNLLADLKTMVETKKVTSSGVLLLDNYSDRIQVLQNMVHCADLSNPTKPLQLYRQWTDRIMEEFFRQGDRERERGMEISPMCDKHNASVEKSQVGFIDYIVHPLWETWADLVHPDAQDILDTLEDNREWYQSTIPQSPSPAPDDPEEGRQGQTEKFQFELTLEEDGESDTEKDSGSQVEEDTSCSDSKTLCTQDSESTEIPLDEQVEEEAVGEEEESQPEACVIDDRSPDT
T2 sequence (Q08493 1-680 isoform Q08493-3): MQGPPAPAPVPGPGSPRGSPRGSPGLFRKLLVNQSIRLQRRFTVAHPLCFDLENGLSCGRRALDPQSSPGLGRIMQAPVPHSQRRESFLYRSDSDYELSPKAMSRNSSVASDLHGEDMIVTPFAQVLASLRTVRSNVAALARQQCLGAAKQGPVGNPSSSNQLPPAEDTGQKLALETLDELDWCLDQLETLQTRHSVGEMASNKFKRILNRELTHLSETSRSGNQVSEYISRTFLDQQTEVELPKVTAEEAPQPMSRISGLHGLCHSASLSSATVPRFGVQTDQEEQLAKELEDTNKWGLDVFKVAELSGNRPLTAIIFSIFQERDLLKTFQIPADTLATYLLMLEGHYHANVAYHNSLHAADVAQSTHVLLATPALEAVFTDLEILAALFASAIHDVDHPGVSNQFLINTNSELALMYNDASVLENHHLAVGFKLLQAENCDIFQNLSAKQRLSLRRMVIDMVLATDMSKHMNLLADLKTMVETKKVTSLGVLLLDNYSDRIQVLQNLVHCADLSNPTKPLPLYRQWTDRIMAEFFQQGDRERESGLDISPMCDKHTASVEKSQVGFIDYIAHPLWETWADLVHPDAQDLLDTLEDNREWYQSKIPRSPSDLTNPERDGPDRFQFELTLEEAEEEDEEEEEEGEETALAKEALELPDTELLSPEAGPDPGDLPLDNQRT
T3 sequence (Q07343 1-564 isoform Q07343-2): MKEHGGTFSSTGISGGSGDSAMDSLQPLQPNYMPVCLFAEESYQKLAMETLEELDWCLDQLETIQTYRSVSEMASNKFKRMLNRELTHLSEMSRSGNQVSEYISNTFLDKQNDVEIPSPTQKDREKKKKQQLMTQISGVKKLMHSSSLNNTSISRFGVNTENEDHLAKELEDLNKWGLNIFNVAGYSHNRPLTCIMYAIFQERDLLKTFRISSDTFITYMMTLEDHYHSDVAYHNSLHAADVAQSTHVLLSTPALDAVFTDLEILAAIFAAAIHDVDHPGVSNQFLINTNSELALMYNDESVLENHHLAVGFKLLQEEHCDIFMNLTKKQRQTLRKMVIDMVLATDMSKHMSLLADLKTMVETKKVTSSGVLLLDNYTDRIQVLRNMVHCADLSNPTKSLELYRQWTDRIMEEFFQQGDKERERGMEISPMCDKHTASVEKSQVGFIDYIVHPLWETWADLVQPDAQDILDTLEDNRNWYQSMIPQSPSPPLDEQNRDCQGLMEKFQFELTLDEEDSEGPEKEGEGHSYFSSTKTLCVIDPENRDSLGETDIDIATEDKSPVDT

Row | activation at 30 µM (PDE4D5) [%] | activation at 30 µM (PDE4C3) [%] | % increase in PDE4B2 activity at 30 μM* (PDE4B2) [%] | Compound | activity at 10 µM (m-IMCD3 cells) [%]
1 | 48 |  |  | Cc1ncccc1-c1nc2ccc(C(=O)NCc3ccc(Cl)cc3)cc2s1 [Example 1, N-(4-chlorobenzyl)-2-(2-methylpyridin-3-yl)benzo[d]thiazole-6-carboxamide] | -7
2 |  | 38 |  | Cc1ncccc1-c1nc2ccc(C(=O)N[C@H]3CCCc4ccccc43)cc2s1 [Example 6, (S)-2-(2-methylpyridin-3-yl)-N-(1,2,3,4-tetrahydronaphthalen-1-yl)benzo[d]thiazole-6-carboxamide] | 7
3 | 81 |  | 3 | O=C(N[C@H]1CCOc2ccccc21)c1ccc2nc(-c3cccnc3)sc2c1 [Example 9, (S)-N-(chroman-4-yl)-2-(pyridin-3-yl)benzo[d]thiazole-6-carboxamide] | 
4 | 37 |  |  | O=C(N[C@H]1CCOc2ccccc21)c1ccc2nc(-c3ccc(C(F)(F)F)nc3)sc2c1 [Example 25, (S)-N-(chroman-4-yl)-2-(6-(trifluoromethyl)pyridin-3-yl)benzo[d]thiazole-6-carboxamide] | 23
5 |  | 76 |  | Cc1cncc(-c2nc3ccc(C(=O)NCc4ccc(Cl)cc4)cc3s2)c1 [Example 31, N-(4-chlorobenzyl)-2-(5-methylpyridin-3-yl)benzo[d]thiazole-6-carboxamide] | 
6 |  | 99 |  | Cc1cncc(-c2nc3ccc(C(=O)NCc4ccc(F)cc4)cc3s2)c1 [Example 32, N-(4-fluorobenzyl)-2-(5-methylpyridin-3-yl)benzo[d]thiazole-6-carboxamide] | 18
7 |  | 82 |  | COc1ccc(CNC(=O)c2ccc3nc(-c4cncc(C)c4)sc3c2)cc1 [Example 33, N-(4-methoxybenzyl)-2-(5-methylpyridin-3-yl)benzo[d]thiazole-6-carboxamide] | 
8 |  | 36 |  | Cc1cncc(-c2nc3ccc(C(=O)NCc4cccc(F)c4)cc3s2)c1 [Example 35, N-(3-fluorobenzyl)-2-(5-methylpyridin-3-yl)benzo[d]thiazole-6-carboxamide] | 
9 |  | 57 |  | Cc1cncc(-c2nc3ccc(C(=O)N[C@H]4CCc5ccccc54)cc3s2)c1 [Example 37, (S)-N-(2,3-dihydro-1H-inden-1-yl)-2-(5-methylpyridin-3-yl)benzo[d]thiazole-6-carboxamide] | 
10 |  | 32 |  | Cc1cncc(-c2nc3ccc(C(=O)N[C@@H]4CCc5ccccc54)cc3s2)c1 [Example 38, (R)-N-(2,3-dihydro-1H-inden-1-yl)-2-(5-methylpyridin-3-yl)benzo[d]thiazole-6-carboxamide] | 
11 |  | 35 |  | Cc1cncc(-c2nc3ccc(C(=O)N[C@@H]4c5ccccc5C[C@@H]4O)cc3s2)c1 [Example 39, N-((1R,2S)-2-hydroxy-2,3-dihydro-1H-inden-1-yl)-2-(5-methylpyridin-3-yl)benzo[d]thiazole-6-carboxamide] | 
12 |  | 68 |  | Cc1cncc(-c2nc3ccc(C(=O)NC4CCCC4)cc3s2)c1 [Example 43, N-cyclopentyl-2-(5-methylpyridin-3-yl)benzo[d]thiazole-6-carboxamide] | 
13 |  | 71 |  | Cc1cncc(-c2nc3ccc(C(=O)NC4CCOCC4)cc3s2)c1 [Example 46, 2-(5-methylpyridin-3-yl)-N-(tetrahydro-2H-pyran-4-yl)benzo[d]thiazole-6-carboxamide] | 
14 | 102 |  |  | O=C(N[C@H]1CCOc2ccccc21)c1ccc2nc(-c3cncc(C(F)(F)F)c3)sc2c1 [Example 47, (S)-N-(chroman-4-yl)-2-(5-(trifluoromethyl)pyridin-3-yl)benzo[d]thiazole-6-carboxamide] | 12
15 | 135 |  |  | O=C(N[C@H]1CCOc2ccccc21)c1ccc2nc(-c3cncc(C4CC4)c3)sc2c1 [Example 48, (S)-N-(chroman-4-yl)-2-(5-cyclopropylpyridin-3-yl)benzo[d]thiazole-6-carboxamide] | 14
16 | 131 |  |  | CC(C)c1cncc(-c2nc3ccc(C(=O)N[C@H]4CCOc5ccccc54)cc3s2)c1 [Example 49, (S)-N-(chroman-4-yl)-2-(5-isopropylpyridin-3-yl)benzo[d]thiazole-6-carboxamide] | 9
17 | 51 | 58 |  | Cc1ccncc1-c1nc2ccc(C(=O)N[C@H]3CCCc4ccccc43)cc2s1 [Example 50, (S)-2-(4-methylpyridin-3-yl)-N-(1,2,3,4-tetrahydronaphthalen-1-yl)benzo[d]thiazole-6-carboxamide] | 11
18 | 87 | 112 |  | Cc1ccncc1-c1nc2ccc(C(=O)N[C@H]3CCOc4ccccc43)cc2s1 [Example 51, (S)-N-(chroman-4-yl)-2-(4-methylpyridin-3-yl)benzo[d]thiazole-6-carboxamide] | -15
19 |  | 46 |  | O=C(N[C@H]1CCOc2ccccc21)c1ccc2nc(-c3cncc(Cl)c3)sc2c1 [Example 53, (S)-2-(5-chloropyridin-3-yl)-N-(chroman-4-yl)benzo[d]thiazole-6-carboxamide] | 
20 | 49 |  |  | Cc1cnccc1-c1nc2ccc(C(=O)N[C@H]3CCOc4ccccc43)cc2s1 [Example 55, (S)-N-(chroman-4-yl)-2-(3-methylpyridin-4-yl)benzo[d]thiazole-6-carboxamide] | 18
21 | 107 |  |  | Cc1cc(-c2nc3ccc(C(=O)N[C@H]4CCOc5ccccc54)cc3s2)ccn1 [Example 56, (S)-N-(chroman-4-yl)-2-(2-methylpyridin-4-yl)benzo[d]thiazole-6-carboxamide] | 10
22 | 77 |  |  | Cc1nn(C)c(C)c1-c1nc2ccc(C(=O)N[C@H]3CCOc4ccccc43)cc2s1 [Example 59, (S)-N-(chroman-4-yl)-2-(1,3,5-trimethyl-1H-pyrazol-4-yl)benzo[d]thiazoIe-6-carboxamide] | 20
23 | 124 |  |  | Cc1nn(C)cc1-c1nc2ccc(C(=O)N[C@H]3CCOc4ccccc43)cc2s1 [Example 61, (S)-N-(chroman-4-yl)-2-(1,3-dimethyl-1H-pyrazol-4-yl)benzo[d]thiazole-6-carboxamide] | 8
24 | 110 |  |  | O=C(N[C@H]1CCOc2ccccc21)c1ccc2nc(-c3cncc(C(F)F)c3)sc2c1 [Example 63, (S)-N-(chroman-4-yl)-2-(5-(difluoromethyl)pyridin-3-yl)benzo[d]thiazole-6-carboxamide] | 16
